Data: the supplement of paper PMC10307832

What was measured:
Experiment in all cases: relative viability (nuclei count vs DMSO), 5 days (fraction); higher = more cells survive
NCI-H441 = system: NCI-H441
Outline: (§1)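 Lung cancer cell lines, seeded in 1536-well plates, were treated the following day by pin tool with a single drug or with five library-drug doses (not always all listed) in √10 steps on top of a fixed anchor-drug dose. Cells were fixed and nuclei stained in one step after 5 days, and nuclei were counted. Relative viability is the nuclei count for treated wells divided by that for vehicle wells, reported as medians of duplicate plates.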

EKVX = system: EKVX
Outline: as §1

NCI-H727 = system: NCI-H727
Outline: as §1

NCI-H460 = system: NCI-H460
Outline: as §1

HCC-366 = system: HCC-366
Outline: as §1

SW 900 = system: SW 900
Outline: as §1

BEN = system: BEN
Outline: as §1

LK-2 = system: LK-2
Outline: as §1

NCI-H3122 = system: NCI-H3122
Outline: as §1

CAL-12T = system: CAL-12T
Outline: as §1

ABC-1 = system: ABC-1
Outline: as §1

NCI-H1650 = system: NCI-H1650
Outline: as §1

NCI-H2170 = system: NCI-H2170
Outline: as §1

LOU-NH91 = system: LOU-NH91
Outline: as §1

NCI-H1437 = system: NCI-H1437
Outline: as §1

NCI-H661 = system: NCI-H661
Outline: as §1

NCI-H1666 = system: NCI-H1666
Outline: as §1

PC-14 = system: PC-14
Outline: as §1

NCI-H2009 = system: NCI-H2009
Outline: as §1

HARA = system: HARA
Outline: as §1

COR-L 105 = system: COR-L 105
Outline: as §1

201T = system: 201T
Outline: as §1

Nc1ccn([C@@H]2O[C@H](CO)[C@@H](O)[C@@H]2O)c(=O)n1 [Cytarabine] + O=C(CCCCCCC(=O)Nc1ccccc1)NO [Vorinostat] (partner 1 µM)
relative viability (NCI-H441; first compound 0.005 µM): 0.527 | relative viability (NCI-H441; first compound 0.01581 µM): 0.882 | relative viability (NCI-H441; first compound 0.05 µM): 0.852 | relative viability (NCI-H441; first compound 0.1581 µM): 0.398 | relative viability (NCI-H441; first compound 0.5 µM): 0.229 | relative viability (EKVX; first compound 0.005 µM): 0.706 | relative viability (EKVX; first compound 0.01581 µM): 0.7 | relative viability (EKVX; first compound 0.05 µM): 0.636 | relative viability (EKVX; first compound 0.1581 µM): 0.494 | relative viability (EKVX; first compound 0.5 µM): 0.414 | relative viability (NCI-H727; first compound 0.005 µM): 1.22 | relative viability (NCI-H727; first compound 0.01581 µM): 1.16 | relative viability (NCI-H727; first compound 0.05 µM): 0.566 | relative viability (NCI-H727; first compound 0.1581 µM): 0.552 | relative viability (NCI-H727; first compound 0.5 µM): 0.524 | relative viability (NCI-H460; first compound 0.005 µM): 0.422 | relative viability (NCI-H460; first compound 0.01581 µM): 0.436 | relative viability (NCI-H460; first compound 0.05 µM): 0.259 | relative viability (NCI-H460; first compound 0.1581 µM): 0.0538 | relative viability (NCI-H460; first compound 0.5 µM): 0.0412 | relative viability (HCC-366; first compound 0.005 µM): 0.31 | relative viability (HCC-366; first compound 0.01581 µM): 0.347 | relative viability (HCC-366; first compound 0.05 µM): 0.301 | relative viability (HCC-366; first compound 0.1581 µM): 0.087 | relative viability (HCC-366; first compound 0.5 µM): 0.0576 | relative viability (SW 900; first compound 0.005 µM): 0.399 | relative viability (SW 900; first compound 0.01581 µM): 0.491 | relative viability (SW 900; first compound 0.05 µM): 0.376 | relative viability (SW 900; first compound 0.1581 µM): 0.182 | relative viability (SW 900; first compound 0.5 µM): 0.166 | relative viability (BEN; first compound 0.005 µM): 0.553 | relative viability (BEN; first compound 0.01581 µM): 0.56 | relative viability (BEN; first compound 0.05 µM): 0.447 | relative viability (BEN; first compound 0.1581 µM): 0.394 | relative viability (BEN; first compound 0.5 µM): 0.364 | relative viability (LK-2; first compound 0.005 µM): 0.244 | relative viability (LK-2; first compound 0.01581 µM): 0.29 | relative viability (LK-2; first compound 0.05 µM): 0.242 | relative viability (LK-2; first compound 0.1581 µM): 0.143 | relative viability (LK-2; first compound 0.5 µM): 0.119 | relative viability (NCI-H3122; first compound 0.005 µM): 0.938 | relative viability (NCI-H3122; first compound 0.01581 µM): 0.914 | relative viability (NCI-H3122; first compound 0.05 µM): 0.894 | relative viability (NCI-H3122; first compound 0.1581 µM): 0.695 | relative viability (NCI-H3122; first compound 0.5 µM): 0.293 | relative viability (CAL-12T; first compound 0.005 µM): 0.53 | relative viability (CAL-12T; first compound 0.01581 µM): 0.68 | relative viability (CAL-12T; first compound 0.05 µM): 0.739 | relative viability (CAL-12T; first compound 0.1581 µM): 0.477 | relative viability (CAL-12T; first compound 0.5 µM): 0.27 | relative viability (ABC-1; first compound 0.005 µM): 0.934 | relative viability (ABC-1; first compound 0.01581 µM): 0.995 | relative viability (ABC-1; first compound 0.05 µM): 0.972 | relative viability (ABC-1; first compound 0.1581 µM): 0.933 | relative viability (ABC-1; first compound 0.5 µM): 0.744 | relative viability (NCI-H1650; first compound 0.005 µM): 0.563 | relative viability (NCI-H1650; first compound 0.01581 µM): 0.514 | relative viability (NCI-H1650; first compound 0.05 µM): 0.261 | relative viability (NCI-H1650; first compound 0.1581 µM): 0.241 | relative viability (NCI-H1650; first compound 0.5 µM): 0.226 | relative viability (NCI-H2170; first compound 0.005 µM): 0.823 | relative viability (NCI-H2170; first compound 0.01581 µM): 0.65 | relative viability (NCI-H2170; first compound 0.05 µM): 0.621 | relative viability (NCI-H2170; first compound 0.1581 µM): 0.4 | relative viability (NCI-H2170; first compound 0.5 µM): 0.314 | relative viability (LOU-NH91; first compound 0.005 µM): 0.857 | relative viability (LOU-NH91; first compound 0.01581 µM): 0.917 | relative viability (LOU-NH91; first compound 0.05 µM): 0.806 | relative viability (LOU-NH91; first compound 0.1581 µM): 0.772 | relative viability (LOU-NH91; first compound 0.5 µM): 0.676 | relative viability (NCI-H1437; first compound 0.005 µM): 0.889 | relative viability (NCI-H1437; first compound 0.01581 µM): 0.77 | relative viability (NCI-H1437; first compound 0.05 µM): 0.605 | relative viability (NCI-H1437; first compound 0.1581 µM): 0.423 | relative viability (NCI-H1437; first compound 0.5 µM): 0.303 | relative viability (NCI-H661; first compound 0.005 µM): 0.751 | relative viability (NCI-H661; first compound 0.01581 µM): 0.698 | relative viability (NCI-H661; first compound 0.05 µM): 0.6 | relative viability (NCI-H661; first compound 0.1581 µM): 0.513 | relative viability (NCI-H661; first compound 0.5 µM): 0.456 | relative viability (NCI-H1666; first compound 0.005 µM): 0.948 | relative viability (NCI-H1666; first compound 0.01581 µM): 0.843 | relative viability (NCI-H1666; first compound 0.05 µM): 0.768 | relative viability (NCI-H1666; first compound 0.1581 µM): 0.733 | relative viability (NCI-H1666; first compound 0.5 µM): 0.619 | relative viability (PC-14; first compound 0.005 µM): 0.519 | relative viability (PC-14; first compound 0.01581 µM): 0.601 | relative viability (PC-14; first compound 0.05 µM): 0.617 | relative viability (PC-14; first compound 0.1581 µM): 0.154 | relative viability (PC-14; first compound 0.5 µM): 0.082 | relative viability (NCI-H2009; first compound 0.005 µM): 0.751 | relative viability (NCI-H2009; first compound 0.01581 µM): 0.698 | relative viability (NCI-H2009; first compound 0.05 µM): 0.71 | relative viability (NCI-H2009; first compound 0.1581 µM): 0.52 | relative viability (NCI-H2009; first compound 0.5 µM): 0.198 | relative viability (HARA; first compound 0.005 µM): 0.694 | relative viability (HARA; first compound 0.01581 µM): 0.44 | relative viability (HARA; first compound 0.05 µM): 0.52 | relative viability (HARA; first compound 0.1581 µM): 0.458 | relative viability (HARA; first compound 0.5 µM): 0.347 | relative viability (COR-L 105; first compound 0.005 µM): 0.816 | relative viability (COR-L 105; first compound 0.01581 µM): 0.79 | relative viability (COR-L 105; first compound 0.05 µM): 0.55 | relative viability (COR-L 105; first compound 0.1581 µM): 0.583 | relative viability (COR-L 105; first compound 0.5 µM): 0.418 | relative viability (201T; first compound 0.005 µM): 0.978 | relative viability (201T; first compound 0.01581 µM): 1.03 | relative viability (201T; first compound 0.05 µM): 1 | relative viability (201T; first compound 0.1581 µM): 0.994 | relative viability (201T; first compound 0.5 µM): 0.937
